This is an account of results in patent US8466162B2, “5-alkynyl-pyridines” (Boehringer Ingelheim International GmbH, priority 2011, dated 2013).

One test concerns MB453 cells. Briefly: alamarBlue MB453 cell assay (antiproliferative/cytotoxicity). It is filed as cell-based. Particulars: Homo sapiens; MDA MB 453 breast cancer cell line. The source says:
(§1) The H460, MB453, U87, MCF7 and BT474 alamarBlue cell assays provide EC50 values indicative of the antiproliferative or cytotoxic effects of the compounds to respectively the H460 (human non small cell line cancer), MB-453 (breast cancer cell line), U87 (glioblastoma cell line), MCF7 (breast cancer cell line) and BT474 (breast cancer cell line). As known in the field, antiproliferative or cytotoxic effect against this cell lines would be expected to be indicative of activity in treating lung, breast and brain cancers. See R. Marone R et al. Biochim. Biophys. Acta. 2008 January; 1784(1):159-85. S. Yaguchi et al., J. Natl. Cancer Inst. 2006 Apr. 19; 98(8):545-56.
(§2) Method Type: Antiproliferative/Cytotoxicity
(§3) alamarBlue® is designed to provide a rapid and sensitive measure of cell proliferation and cytotoxicity in various human and animal cell lines. The assay is based on the reduction of alamarBlue in the reducing environment of living (metabolically active) cells. In the presence of added cytotoxic or antiproliferative compounds, the innate metabolic activity ceases.
(§4) AlamarBlue is soluble and stable in culture medium. Measurements are made fluorometrically by exciting at 530-560 nm and measuring emission at 590 nm. In reporting percent alamarBlue reduction by monitoring fluorescence, data are expressed as fluorescence emission intensity units as a function of time of incubation.
(§5) 3. Equipment • 96-well plates, flat bottom (Falcon, Cat. No.: 353072) • 96-well plates, U-shaped (Costar, Cat. No.: 3799) • CO2-Incubator • Microplate Reader, Spectramax Plus, Molecular Devices 4. Typical Procedure • Day 0: Seed 3000 BT-474 cells (IMDM/5% FCS, 1% NEAA, 1% Sodiumpyruvat) in 150 μl medium into a 96-well plate, flat bottom (include mediumblank). Incubate plates at 37° C. in a CO2 incubator overnight. • Day 1: Dilute compounds to a concentration 40 μM ->1:3 in medium, 10 dilution steps, in 96-well plates. • Add 50 μl per well of each dilution (total volume per well 200 μl; final conc. of cpds: 10 μM ->1:3). If required, test further dilutions. • All concentrations are tested in duplicates. • Controls: Cells w/o cpd. (+50 μl medium/DMSO). • Cells are incubated with compounds for 5-6 days. • Day 6 or 7: Add 25 μl of alamarBlue solution to each well and incubate for 8 hours at 37° C. Measure fluorescence by exciting at 530-560 nm and measuring emission at 590 nm 5. Evaluation • Subtract average value for medium blank from sample readings • Calculate EC50 using GraphPad Prism (Fifty)

For a further test, the system named is H460 cells. As to the kind of experiment: alamarBlue H460 cell assay (antiproliferative/cytotoxicity). The format is cell-based. Particulars: NCI-H460; H460 human lung carcinoma cells.
Excerpt: as §1, §2, §3, §4, §5

For the next test, the target named is T1, PI3Kalpha (Homo sapiens, UniProt P42336).
T1 construct: His (N); made in house; host or cells: SF9 insect cells (baculovirus co-infection)
T1 sequence (P27986 whole entry): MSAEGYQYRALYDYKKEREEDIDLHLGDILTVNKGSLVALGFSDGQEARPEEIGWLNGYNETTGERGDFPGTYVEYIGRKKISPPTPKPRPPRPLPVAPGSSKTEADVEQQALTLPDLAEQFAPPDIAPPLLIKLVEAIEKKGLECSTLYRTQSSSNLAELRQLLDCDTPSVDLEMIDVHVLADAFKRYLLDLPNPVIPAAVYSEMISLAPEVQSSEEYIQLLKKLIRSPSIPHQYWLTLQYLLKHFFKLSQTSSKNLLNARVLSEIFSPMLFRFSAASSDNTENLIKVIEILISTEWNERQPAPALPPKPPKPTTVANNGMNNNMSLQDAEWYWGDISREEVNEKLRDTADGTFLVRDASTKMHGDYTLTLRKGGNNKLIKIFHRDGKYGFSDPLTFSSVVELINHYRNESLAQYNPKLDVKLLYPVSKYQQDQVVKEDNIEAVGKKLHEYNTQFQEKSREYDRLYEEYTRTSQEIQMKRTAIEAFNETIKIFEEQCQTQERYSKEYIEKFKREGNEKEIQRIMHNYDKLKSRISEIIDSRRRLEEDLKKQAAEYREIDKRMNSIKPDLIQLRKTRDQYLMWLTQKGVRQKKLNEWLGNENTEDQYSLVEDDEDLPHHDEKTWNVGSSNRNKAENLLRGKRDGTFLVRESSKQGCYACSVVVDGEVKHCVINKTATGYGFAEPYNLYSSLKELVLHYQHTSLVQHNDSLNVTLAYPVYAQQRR
T1 sequence (P42336 whole entry): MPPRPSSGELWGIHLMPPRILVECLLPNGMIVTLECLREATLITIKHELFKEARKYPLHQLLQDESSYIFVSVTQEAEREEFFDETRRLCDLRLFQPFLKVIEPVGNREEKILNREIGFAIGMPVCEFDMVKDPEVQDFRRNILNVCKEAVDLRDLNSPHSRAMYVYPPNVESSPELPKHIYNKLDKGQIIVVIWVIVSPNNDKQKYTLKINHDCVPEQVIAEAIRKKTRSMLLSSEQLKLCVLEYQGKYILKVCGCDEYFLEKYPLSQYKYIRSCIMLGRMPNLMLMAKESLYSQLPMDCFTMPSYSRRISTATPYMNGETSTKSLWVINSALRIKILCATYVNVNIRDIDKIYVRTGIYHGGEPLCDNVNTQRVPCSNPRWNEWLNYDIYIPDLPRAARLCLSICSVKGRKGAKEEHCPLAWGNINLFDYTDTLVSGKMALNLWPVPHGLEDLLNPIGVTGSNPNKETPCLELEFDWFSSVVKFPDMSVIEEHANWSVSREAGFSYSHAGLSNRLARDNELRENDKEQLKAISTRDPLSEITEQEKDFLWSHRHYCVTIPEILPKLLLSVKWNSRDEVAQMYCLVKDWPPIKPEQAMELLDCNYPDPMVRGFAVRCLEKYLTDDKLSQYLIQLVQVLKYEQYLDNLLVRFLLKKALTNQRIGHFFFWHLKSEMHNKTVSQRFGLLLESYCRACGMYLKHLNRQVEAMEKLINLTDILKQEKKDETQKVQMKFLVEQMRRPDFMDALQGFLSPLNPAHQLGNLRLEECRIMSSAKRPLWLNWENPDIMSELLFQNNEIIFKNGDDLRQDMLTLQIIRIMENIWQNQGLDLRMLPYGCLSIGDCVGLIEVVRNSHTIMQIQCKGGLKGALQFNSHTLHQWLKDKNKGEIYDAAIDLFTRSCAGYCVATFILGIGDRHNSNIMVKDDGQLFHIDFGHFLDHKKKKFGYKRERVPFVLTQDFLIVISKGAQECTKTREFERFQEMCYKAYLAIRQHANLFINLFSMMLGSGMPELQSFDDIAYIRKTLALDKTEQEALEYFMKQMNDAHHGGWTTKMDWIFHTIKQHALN
As to the kind of experiment: Inhibition of PI3Kalpha-induced PIP-2 phosphorylation (filter-binding assay, 33P-ATP). It is filed as biochemical. The conditions noted are these: PI3 Kinase alpha (p85alpha/His-p110alpha), 1 μM ATP; read-out: IC50 PI3Kα. How it is done: Biological Methods Inhibition of PI3Kalpha-Induced PIP-2 Phosphorylation
See also J. A. Engelman, Nature Reviews Cancer, 2009, 9, 550-562; A. Carnero, Expert Opin. Investig. Drugs, 2009, 18, 1265-1277 and P. Liu et al., Nature Reviews Drug Discovery, 2009, 8, 627-64.
Method Type: Filter-Binding-Assay
Aliquoted in desired amounts and stored at −80° C. […] Assay Procedure
The substrate-containing lipid vesicles are dissolved to a concentration of 0.637 mg lipid blend/ml assay buffer (with BSA, freshly added) in 50 ml Falcon ->keep on ice, followed by ultrasonication (pulse of 15 sec followed by a pause of 10 sec, 4×). Compounds are serially diluted in assay buffer+6% DMSO and 10 μl of each dilution is added per well of a 96-well plate (compounds are tested in duplicates) and mixed with 30 μl of the lipid vesicles containing PDGFR-Peptide (0.5 μM final) and PI3K alpha (25 ng/well final). The mixture is then incubated for 20 minutes at room temperature.
Subsequently, 20 μl of assay buffer containing 3 μM cold ATP and 0.5 μCi/20 μl 33P-ATP are added. The plates are then incubated at room temperature for 120 minutes (shaking with 300 rpm).
The reaction mix is transferred onto filter plates using “filtermate harvester” from Packard: filter plates are rinsed with PBS, then the reaction mix is filtered onto the filter plate, washed 5 times with PBS and are allowed to dry for 30-60 minutes at 50° C. The plate bottom is sealed with Perkin Elmer white adhesive foil and 25 μl/well Microscint0 are added, the top is covered with transparent adhesive foil and the plate is measured with Wallac Trilux 1450 Microbeta Counter.
As positive control serve wells containing vehicle controls (1% DMSO in assay buffer), showing non-inhibited kinase activity (high values). Wells containing assay buffer instead of enzyme can serve as control for background activity (low values).
Calculate IC50 values using the Smiley program (based on GrapPad Prism)

The subject of the next test is U87 cells. As to the kind of experiment: alamarBlue U87 cell assay (antiproliferative/cytotoxicity). It is filed as cell-based. Particulars: U-87MG human glioblastoma cells.
Excerpt: as §1, §2, §3, §4, §5

The test system of a further test is MCF7 cells. As to the kind of experiment: alamarBlue MCF7 cell assay (antiproliferative/cytotoxicity). It is filed as cell-based. The conditions noted are these: MCF7 human breast cancer cell line.
Excerpt: as §1, §2, §3, §4, §5
(In general: Alamar Blue is a resazurin reagent that responds to reducing activity.)

The subject of a further test is BT474 cells. Briefly: alamarBlue BT474 cell assay (antiproliferative/cytotoxicity). The format is cell-based. The conditions noted are these: BT-474 human breast cancer cell line, 5-6 days incubation.
Excerpt: as §1, §2, §3, §4, §5

SMILES strings stand for the structures.

By EC50 is commonly meant the midpoint of the concentration-response curve. What is called IC50 is the concentration that gives 50% inhibition. Regarding `CCc1ncnc(-c2ccc(OC)c(OC)c2)c1C#Cc1cnc(C)c(NS(C)(=O)=O)c1` [Example 1, N-{5-[4-(3,4-Dimethoxy-phenyl)-6-ethyl-pyrimidin-5-ylethynyl]-2-methyl-pyridin-3-yl}-methanesulfonamide], the EC50 with MB453 cells amounted to 79 nM; in the test on H460 cells it was 490 nM; in the test with U87 cells, 300 nM; in the test on MCF7 cells, 39 nM; in the test on BT474 cells it was 94 nM. In addition, the IC50 at PI3Kalpha came to 1 nM.

Regarding `CCc1ncnc(-c2cccc(CN(C)C)c2)c1C#Cc1cnc(C)c(NS(C)(=O)=O)c1` [Example 2, N-{5-[4-(3-Dimethylaminomethyl-phenyl)-6-ethyl-pyrimidin-5-ylethynyl]-2-methyl-pyridin-3-yl}-methanesulfonamide], the half-maximal effective concentration (EC50) in the test with MB453 cells was determined as 394 nM; in the test with H460 cells it was 2820 nM; with U87 cells it was 1230 nM; in the test on MCF7 cells, 439 nM; in the test on BT474 cells, 588 nM. In addition, the IC50 on PI3Kalpha was 7 nM.

For `CCc1ncnc(-c2ccc(C)nc2)c1C#Cc1cnc(C)c(NS(C)(=O)=O)c1` [Example 3, N-{5-[4-Ethyl-6-(6-methyl-pyridin-3-yl)-pyrimidin-5-ylethynyl]-2-methyl-pyridin-3-yl}-methanesulfonamide], the EC50 was 112 nM in the test with MB453 cells; 368 nM in the test with H460 cells; 410 nM with U87 cells; 23 nM in the test with MCF7 cells; 177 nM with BT474 cells. On PI3Kalpha, the IC50 turned out to be 1 nM.

For the compound `CCc1ncnc(-c2ccnc(C)c2)c1C#Cc1cnc(C)c(NS(C)(=O)=O)c1` [Example 4, N-{5-[4-Ethyl-6-(2-methyl-pyridin-4-yl)-pyrimidin-5-ylethynyl]-2-methyl-pyridin-3-yl}-methanesulfonamide], the EC50 in the test with MB453 cells turned out to be 75 nM; in the test with H460 cells, 329 nM; in the test on U87 cells, 383 nM; in the test with MCF7 cells, 27 nM; in the test on BT474 cells it was 171 nM. Further, the IC50 at PI3Kalpha is 2 nM.

`CCc1ncnc(-c2ccnc(C)c2)c1C#Cc1cnc(C)c(NS(=O)(=O)c2ccccc2Cl)c1` [Example 11, 2-Chloro-N-{5-[4-ethyl-6-(2-methyl-pyridin-4-yl)-pyrimidin-5-ylethynyl]-2-methyl-pyridin-3-yl}-benzenesulfonamide]: the EC50 came to 190 nM in the test with MB453 cells, 103 nM in the test with H460 cells, 686 nM with U87 cells and 74 nM in the test with MCF7 cells. For the same compound, the half-maximal inhibitory concentration (IC50) at PI3Kalpha is 1 nM.

For `CCc1ncnc(-c2ccnc(C)c2)c1C#Cc1cnc(C)c(NS(=O)(=O)c2ccc(C#N)cc2)c1` [Example 84, 4-Cyano-N-{5-[4-ethyl-6-(2-methyl-pyridin-4-yl)-pyrimidin-5-ylethynyl]-2-methyl-pyridin-3-yl}-benzenesulfonamide], the EC50 with MB453 cells turned out to be 190 nM; in the test on H460 cells it was 769 nM; in the test on U87 cells, 778 nM; with MCF7 cells, 85 nM. On PI3Kalpha, the IC50 stood at 2 nM.

Consider `CCc1ccc(S(=O)(=O)Nc2cc(C#Cc3c(CC)ncnc3-c3ccnc(C)c3)cnc2C)cc1` [Example 100, 4-Ethyl-N-{5-[4-ethyl-6-(2-methyl-pyridin-4-yl)-pyrimidin-5-ylethynyl]-2-methyl-pyridin-3-yl}-benzenesulfonamide], for which the EC50 with MB453 cells was determined as 746 nM; with H460 cells, 558 nM; with U87 cells, 819 nM; with BT474 cells, 733 nM. For the same compound, the concentration for half-maximal inhibition (IC50) on PI3Kalpha amounted to 5 nM.

On to `CCc1ncnc(-c2ccnc(C)c2)c1C#Cc1cnc(C)c(NS(=O)(=O)c2cc(Cl)ccc2OC)c1` [Example 101, 5-Chloro-N-{5-[4-ethyl-6-(2-methyl-pyridin-4-yl)-pyrimidin-5-ylethynyl]-2-methyl-pyridin-3-yl}-2-methoxy-benzenesulfonamide], for which the EC50 in the test with MB453 cells is 89 nM; in the test on H460 cells, 82 nM; in the test with U87 cells, 259 nM; in the test on BT474 cells, 102 nM. For the same compound, the IC50 on PI3Kalpha came out at 0.65 nM.

With `CCc1ncnc(-c2ccnc(C)c2)c1C#Cc1cnc(C)c(NS(=O)(=O)c2cc(C)ccc2OC)c1` [Example 102, N-{5-[4-Ethyl-6-(2-methyl-pyridin-4-yl)-pyrimidin-5-ylethynyl]-2-methyl-pyridin-3-yl}-2-methoxy-5-methyl-benzenesulfonamide], the EC50 in the test on MB453 cells was 146 nM; in the test with H460 cells it was 104 nM; with U87 cells, 319 nM; in the test with BT474 cells it was 149 nM. Also, the IC50 on PI3Kalpha came out at 1 nM.

Consider `CCc1ncnc(-c2ccnc(C)c2)c1C#Cc1cnc(C)c(NS(=O)(=O)c2c(F)cccc2F)c1` [Example 103, N-{5-[4-Ethyl-6-(2-methyl-pyridin-4-yl)-pyrimidin-5-ylethynyl]-2-methyl-pyridin-3-yl}-2,6-difluoro-benzenesulfonamide], for which the EC50 with MB453 cells came to 59 nM; with H460 cells, 185 nM; in the test on U87 cells, 161 nM; in the test with BT474 cells, 53 nM. The IC50 at PI3Kalpha turned out to be 0.32 nM.

Consider `CCc1ncnc(-c2ccc(CN)nc2)c1C#Cc1cnc(C)c(NS(=O)(=O)c2ccc(F)cc2F)c1` [Example 104, N-{5-[4-(6-Aminomethyl-pyridin-3-yl)-6-ethyl-pyrimidin-5-ylethynyl]-2-methyl-pyridin-3-yl}-2,4-difluoro-benzenesulfonamide], for which the EC50 in the test on MB453 cells came to 119 nM; with H460 cells it was 955 nM; with U87 cells it was 605 nM; in the test with BT474 cells it was 127 nM. The concentration for half-maximal inhibition (IC50) on PI3Kalpha worked out at 0.64 nM.

`CCc1ncnc(-c2ccc(CN)nc2)c1C#Cc1cnc(C)c(NS(=O)(=O)c2ccccc2C(F)(F)F)c1` [Example 105, N-{5-[4-(6-Aminomethyl-pyridin-3-yl)-6-ethyl-pyrimidin-5-ylethynyl]-2-methyl-pyridin-3-yl}-2-trifluoromethyl-benzenesulfonamide]: the half-maximal effective concentration (EC50) in the test with MB453 cells worked out at 152 nM; in the test with H460 cells, 958 nM; with U87 cells it was 406 nM; with BT474 cells, 1210 nM. For the same compound, the IC50 at PI3Kalpha is 0.93 nM.

On to `CCc1ncnc(-c2ccc(CN)nc2)c1C#Cc1cnc(C)c(NS(=O)(=O)c2ccccc2)c1` [Example 106, N-{5-[4-(6-Aminomethyl-pyridin-3-yl)-6-ethyl-pyrimidin-5-ylethynyl]-2-methyl-pyridin-3-yl}-benzenesulfonamide], for which the 50% effective concentration (EC50) came to 118 nM in the test with MB453 cells, 393 nM in the test on H460 cells, 213 nM in the test on U87 cells and 131 nM in the test on BT474 cells. The 50% inhibitory concentration (IC50) at PI3Kalpha stood at 1 nM.
